Assay results taken from patent US20140341922A1, “Method for Overcoming Tolerance to Targeted Anti-Cancer Agent” (SUN R&DB Foundation, priority 2011, published 2014).

Experiments:
[1] = test system: recombinant soluble integrin β3 (rβ3) binding to IGF-1; assay: ELISA-type integrin binding assay on IGF-1-coated plates; settings: 2 h
Experimental: IGF-1 (1 or 2 μg) was coated onto wells in 96-well microtiter plates and incubated with recombinant integrin β3 (0.5 μg/ml) and/or IGF-1R (0.1 or 0.5 μg/ml) protein diluted in 1 mM MnCl2-added HEPES-Tyrode buffer at room temperature for 2 h in the presence or absence of cixutumumab (10 μg/ml). Binding of integrin β3 and/or IGF-1R was detected by enzyme immunoassay using anti-His or anti-IGF-1R mAbs and avidin-labeled alkaline phosphatase-conjugated anti-mouse or anti-rabbit IgGs.
Secondly, the present inventors performed Enzyme-Linked ImmunoSorbent Assay-type integrin binding assay. Specifically, 96-well microtiter plates coated with IGF-1 were recombinant soluble IGF-1R (rIGF-1R; 5 μg/ml) or recombinant soluble integrin β3 (rβ3; 5 μg/ml), alone or in combination, in the presence or absence of cixutumumab (25 μg/ml) for 2 h. Bound IGF-1R (left) and integrin β3 (middle, right) were identified using anti-IGF1R and anti-His mAbs, respectively. The data are shown as the mean±SD of triplicate experiments (*P<0.05; **P=0.01; ***P<0.001).

[2] = test system: IGF-1R, EGFR, Src, Akt, mTOR phosphorylation; assay: Western blot of IGF-1R, EGFR, Src, Akt signaling after cixutumumab; type: cell-based, human
Experimental: Preparation of total cell lysates, Western blot analysis, and immunoprecipitation were performed according to methods described in our previous report (Morgillo et al., 2006).
Total cell lysates were immunoprecipitated with antibodies against integrin β3, integrin β1, or IgG. The precipitates with protein A agarose were resolved by sodium dodecyl sulfate-polyacrylamide gel electrophoresis (SDS-PAGE) and transferred to a polyvinylidene difluoride (PVDF) membrane. Western blot analysis was performed using specific Abs described as follows, and antigen-antibody complexes were visualized using enhanced chemiluminescence plus kits (Amersham Biosciences, Piscataway, N.J.).
The present inventors investigated the mechanisms involved in the resistance to cixutumumab treatment in HNSCC and NSCLC cells. cixutumumab resistant (LN686, FADU, 226B, 226Br, H596, and H460) or -sensitivity (UMSCC38, OSC19, H1299, and A549m) lines grown in TCP, PCP, UAP, or soft agar were untreated or treated with 25 μg/ml of cixutumumab for 6 h, and then were stimulated with IGF-1 for 30 min. Expression of several proteins were analyzed by Western blot analysis.
Cixutumumab-resistant (LN686, FADU, 226B, 226Br, H596, and H460) or -sensitive (UMSCC38, OSC19, H1299, and A549m) cell lines grown in PCP were untreated or treated with 25 μg/ml of cixutumumab for 7 days, and then were stimulated with 10% FBS for 30 min. Expression of several proteins were analyzed by western blot analysis.
Because cross-talk between EGFR and IGF-1R signalings have been proposed as a major mechanism of a resistance to TKIs of IGF-1R and EGFR (Buck et al., 2008; Morgillo et al., 2006), the present inventors next examined whether cixutumumab treatment induces activation of EGFR and Akt phosphorylation. After cixutumumab-resistant (LN686, FADU, 226B, 226Br, H596, and H460) or -sensitive (UMSCC38, OSC19, H1299, and A549m) cell lines grown in PCPs were treated with cixutumumab, 10% FBS was treated for 30 min. Several phosphorylated proteins and actin were analyzed by western blot analysis. In addition, densitometric analysis was performed to quantify the expression of the proteins for comparisons between cixutumumab-treated and control cells treated with vehicle.
The LN686 cells grown in PCP were treated with cixutumumab (25 μg/ml) for indicated times prior to stimulation with 10% FBS (FIGS. 14 and 15) or IGF-1 (100 ng/ml) (FIGS. 16 and 17) in the presence or absence of anti-human IGF-1 neutralizing monoclonal antibody (αIGF-1) (FIGS. 15 and 16) for indicated times (FIG. 16) or for 30 min (FIGS. 14, 15, and 17). Immunoprecipitation with whole proteins or integrin β3 antibodies was performed on the presented proteins, and expression of the proteins was analyzed by western blot analysis.
In addition, LN686 cells grown in PCP were treated with cixutumumab (25 μg/ml) for 7 days in the absence of FBS. The results obtained by analyzing p-IGF-1R (Y1131), IGF-1R, p-Src (Y416), Src, p-EGFR (Y845), p-EGFR (Y1068), EGFR, p-Akt (S473), and Akt using western blot analysis. LN686 cells stimulated with 10% serum for 30 min were included as a control.

[3] = test system: LN686, H226B, UMSCC38 and A549m xenograft tumors; assay: Xenograft tumors of drug-resistant and -sensitive cells in nude mice; type: in vivo; settings: intraperitoneal, 25 mg/kg twice a week
Experimental: LN686, UMSCC38, H226B, or A549m cells (1×10^6 cells/mouse in 100 μl of PBS) were subcutaneously injected into nude mice at a single dorsal flank site (6-9 mice per group). For HNSCC patient-derived tumor xenografts, primary human tumor specimens were collected from an untreated patient who underwent lobectomies of squamous carcinoma of the oral cavity. The tumors were cut into small pieces with a size of 2-mm^3 and subcutaneously implanted into the nude mice (one piece per mouse). At 0 day (the time point when tumor size reached to 80 to 100 mm^3) mice were treated with cixutumumab (10 mg/kg, i.p., once or twice a week), Ad-EV (3×10^11 pfu, intratumoral injection, once a week), Ad-CSK (3×10^11 pfu, intratumoral injection, once a week), siCon, siintegrin β3 ([…], i.p., once a week), dasatinib (20 mg/kg, oral gavage, daily), cixutumumab and Ad-CSK, or cixutumumab and dasatinib.
Tumor xenografts were treated with vehicle or cituxumumab (intraperitoneal, 25 mg/kg) twice a week. Data are presented as mean tumor volume ±SD for indicated time or mean tumor weight at the date of euthanasia ±SD (*P<0.05, **P<0.01, ***P<0.001). […] Thus, antitumor activity of cixutumumab was consistent in cells grown in 3D (or 3D-mimicking) conditions in vitro and in those grown in vivo.

ablation of IGF-1-rβ3 interaction by rIGF-1R [1]: markedly blocked
Substance: cixutumumab: humanized mAb targeting IGF-1R, provided by ImClone Systems
IGF-1-induced IGF-1R and Akt phosphorylation, and total IGF-1R expression ([2]; 25 μg/mL for 6 h, LN686 and OSC19 cells in TCPs, PCPs, UAPs, soft agar): effectively suppressed | phosphorylation of Akt and downstream effectors mTOR, p70S6K, S6 ([2]; LN686 (cixutumumab-resistant)): not to inhibit or to even increase | time IGF-1R remained dephosphorylated ([2]; LN686 in PCP, 25 μg/ml, no change in IGF-1R level): 3 h | levels of p-IGF-1R, p-EGFR (Y845), p-Src (Y416), and p-Akt (S473) ([2]; LN686 in PCP, 30 min pretreatment, 10% FBS stimulation): decreased | phosphorylation of Src, FAK, EGFR (Y845), Akt, mTOR ([2]; LN686 in PCP, one hour treatment, 10% FBS stimulation): rapidly rephosphorylated | phosphorylation of Akt and downstream effectors mTOR, p70S6K, S6 ([2]; OSC19 (cixutumumab-sensitive)): inhibited | EGFR, Src, or Akt phosphorylation ([2]; cixutumumab alone, absence of IGF-1 stimulation, LN686): failed to induce | phosphorylation of EGFR at Src-specific site (Y845) and of Src (Y416) ([2]; cixutumumab-resistant lines in PCPs, 7 days, 10% FBS 30 min): increased | phosphorylation of EGFR at Tyr1068 ([2]; drug-resistant lines in PCPs, 7 days, 10% FBS 30 min): increased | growth and weight of xenograft tumors ([3]; LN686 and H226B xenografts): no significant effects | growth and weight of xenograft tumors ([3]; UMSCC38 and A549 xenografts): significantly decreased
